One data set deals with Th1, Th2, Th17 cells. Put plainly: Th cell development: ovalbumin restimulation ELISpot of splenocytes from ovalbumin/alum immunized mice. It is filed as in vivo. How it is done:
The ability of PM-242H to inhibit the development of major T helper effector subsets (Th1, Th2, Th17 cells) at the time of allergen exposure was tested. For these experiments, mice were immunized with chicken egg ovalbumin precipitated in alum over two weeks and then challenged intranasally with the spores of the fungus Aspergillus niger (AN) together with alum-free ovalbumin. The inventors prepared single cell suspensions of splenocytes from these same mice and stimulated the T cells in these preparations with ovalbumin to determine the precise number of antigen-specific Th1, Th2 and Th17 cells that developed. […] In summary, treatment of mice with PM-242H suppressed the development of Th2 and Th17, but not Th1 cells. These findings are entirely consistent with the known properties of STAT6, but in addition indicate that STAT6 may be involved with the production of Th17 cells.
(§1) Mice were sensitized to ovalbumin precipitated in alum as described in FIG. 3 (Corry, D. B. et al. 1996). In brief, mice were vaccinated intraperitoneally weekly with ovalbumin/alum together with PM-242H (50 or 250 μg) or liposome vehicle (DLPC) for 2 consecutive weeks and allowed to rest for 1 week. Mice were then intranasally challenged with ovalbumin (1 mg/mL in PBS; A5503, Sigma-Aldrich) and 4×10^5A. niger conidia for 5 consecutive days after which the allergic airway disease phenotype was assessed. Randomization was not used to assign mice to specific treatment groups. Investigators were blind as to mouse genotype and treatment during data collection.
Splenocytes from the indicated challenge groups of naïve and sensitized mice were assessed for antigen-specific recall cytokine responses by ELISpot. In brief, spleens were removed post mortem, de-aggregated by pressing through 40 μm nylon mesh and the red blood cells were removed from resulting cell suspension by hypotonic lysis. The splenocytes were then washed twice and cultured in flat-bottom wells of 96-well microtiter plates that were pre-coated with capture antibodies to IL-4, interferon gamma (IFN-γ) and IL-17A. Splenocytes were added in duplicate cultures of 0.5×10^6 cells/well that were then diluted serially two-fold to 0.015×10^6 cells/well. Cells were cultured in the presence of media or whole ovalbumin (1 mg/mL) overnight and plates were developed as previously described (Kheradmand, F. et al. 2002).

The test system of the next data set is allergic lung disease. Put plainly: Allergic lung disease induction model (ovalbumin/alum immunization, ovalbumin and A. niger challenge). It is filed as in vivo, mice. On the procedure: The same model as described in part E was used to determine the effect of PH-242H on the induction of allergic lung disease. Mice that were immunized with ovalbumin and challenged intranasally with ovalbumin and A. niger spores developed AHR as determined by a shift to the left of the acetylcholine (Ach) dose response curve as compared to PBS challenged animals. Enzyme linked immunocell spot (ELISpot) assays were then performed on whole lung homogenates, assaying for IL-4, gamma interferon (IFN-γ) and IL-17A-secreting cells.
as §1
(§2) Allergic airway disease was assessed as previously described (Porter, P. et al. 2009). Changes in respiratory system resistance (RRS) in response to intravenous acetylcholine challenge, bronchoalveolar lavage (BAL) fluid differential counts, and analysis of lung IL-4, IL-17A and IFN-γ producing cells by enzyme linked immunocell spot assay (ELISpot) were performed as previously described (Lee, S. H. et al. 2003; Polikepahad, S. et al. 2010).

For another data set, the system named is allergic airway disease. Kind of data set: Allergic lung disease reversal model (A. niger spores, treatment of established disease). It is filed as in vivo, mice. On the procedure:
FIG. 17A, Mice are treated intranasally with 400,000 Aspergillus niger conidia every other day. After two weeks A. niger conidia are administered with either DLPC or DLPC/PM-43I. Airway hyperresponsiveness is measured at week 2, 3, and 4. FIG. 17B, Airway hyperrepsonsiveness induced by acetylcholine is revered by treatment with PM-43I.
In separate experiments wild type C57BL/6 mice were challenged with the spores of A. niger for two weeks after which the inventors began to give PM-242H intranasally at 50 micrograms per dose at the time of continued fungal challenge for an additional two weeks (FIG. 13A).
(§3) Mice were challenged intranasally with a clinical isolate of 4×10^5 A. niger conidia every two days for a total of 8 challenges and treated with 50 μg of the indicated β-agonist, liposome vehicle (DLPC) and/or PM-242H (5 or 50 μg) intranasally as indicated and the allergic airway disease phenotype was determined according to previously described methods (Porter, P. et al. 2009).
as §2
Lungs were perfused of blood by cannulating the pulmonary artery and injecting ice cold PBS until lavage returning via the left atrium was clear. Lungs were then inflated via the trachea with 10% formalin at 25 cm water pressure and the tracheas were tied off prior to removal of the cardiopulmonary unit en bloc submerging in 10% formalin overnight. Fixed lungs were then divided into individual lobes that were then halved and embedded in paraffin. Lung sections were cut at 5 microns and stained with the periodic acid-Schiff (PAS) kit (395B; Sigma-Aldrich, St. Louis, Mo.).

Data set [1] relates to STAT6. Kind of data set: STAT6 phosphorylation in vitro and in vivo (summary statement). From the text:
The synthesized PM-242H compound was advanced to in vivo studies. PM-242H was formulated as simple dilauroylphosphatidyl-choline liposomes and applied by intranasal administration. […] These findings with PM-242H in vivo and in vitro are entirely consistent with and explained by its ability to inhibit selectively STAT6.
(§4) Cells or lungs were isolated and lysed in RIPA buffer (9806S; Cell Signaling, Danvers, Mass.), protein was quantified using BCA Protein Assay Reagent (23227; Thermo Fisher Scientific, Rockford, Ill.) and denatured in Laemmli sample buffer (161-0737; Bio-Rad, Hercules, Calif.) according to manufacturer's protocol. Proteins were separated on SDS-Page gels were hand-poured using a standard electrophoresis unit (Bio-Rad, Hecules, Calif.) and transferred to a membrane using iBlot Gel Transfer Device (IB 1001; Invitrogen, Grand Island, N.Y.). Membranes were blocked in 2% FBS PBST and probed for c-Src, p-c-Src, pErk1/2, Erk1/2, p STAT6, STAT6, pSTAT3, STAT3, pSTAT5, STAT5, Shp-1, and β-actin. Signal was detected with a ChemiDoc XRS+ system (BioRad; Hercules, Calif.).

The next data set has as its system Stat5. Kind of data set: Selectivity: Stat5 phosphorylation in EGF-stimulated MDA-MB-468 cells. Format: cell-based. Conditions: serum starved MDA-MB-468 cells, 2 hr. On the procedure:
(§5) Compounds were screened at 5 μM for their ability to inhibit IL-4 stimulated phosphorylation of STAT6 in Beas-2B immortalized human airway cells. Cells were treated with prodrug for 2 hr and then stimulated with IL-4. After 30 min cells were lysed and pSTAT6 and total STAT6 were measured with western blots (FIG. 7). Without being bound by theory, the inhibition observed is consistent with compounds entering cells, being stripped of the POM groups, binding to the SH2 domain of STAT6, blocking binding to IL-4Rα and preventing phosphorylation of Tyr641. […] Compounds resulting in <10% residual phosphorylation were taken on to MTS cytotoxicity assays and dose response assays. (FIG. 8). The cyclic aromatic amides PM-63I, PM-80I, PM-81I, and PM-86I were very potent with IC50 values from 50-500 nM. […] With the exception of PM-43I, concentrations that inhibit STAT6 phosphorylation are 20-100 fold lower than those resulting in toxicity. STAT6 inhibitors were assayed for their ability to inhibit the phosphorylation of STAT 1, STAT 3, STAT 5, Akt, and FAK, all processes that depend on SH2 domain-phosphotyrosine interactions (Mandal, P. K. et al. 2011). Serum starved MDA-MB-468 breast cancer cells were treated with STAT6 inhibitors for 2 hr and then were stimulated with EGF (See FIGS. 9A and 9B).

For data set [2], the system named is asthma-related parameters. Kind of data set: Dose effect on asthma-related parameters in fungus-challenged mice. To be noted: fungus-challenged mice. It is filed as in vivo. How it is done:
(§6) The issue of toxicity was addressed with the newer synthetic STAT6 peptidomimetic agents 86i and 43i in two ways. First, the inventors determined the effect of each inhibitor on asthma-related parameters in fungus-challenged mice. […] Second, the weights of mice were measured during challenge with the different doses of both STAT6 inhibitors.
as §3, §2

Data set [3] in a line: Toxicity: weights of mice during challenge with different doses. Format: in vivo. Conditions: highest dose of 50 micrograms. On the procedure:
as §6

Data set [4] addresses T1, STAT6 (Homo sapiens, UniProt P42226).
T1 sequence (P42226 1-847): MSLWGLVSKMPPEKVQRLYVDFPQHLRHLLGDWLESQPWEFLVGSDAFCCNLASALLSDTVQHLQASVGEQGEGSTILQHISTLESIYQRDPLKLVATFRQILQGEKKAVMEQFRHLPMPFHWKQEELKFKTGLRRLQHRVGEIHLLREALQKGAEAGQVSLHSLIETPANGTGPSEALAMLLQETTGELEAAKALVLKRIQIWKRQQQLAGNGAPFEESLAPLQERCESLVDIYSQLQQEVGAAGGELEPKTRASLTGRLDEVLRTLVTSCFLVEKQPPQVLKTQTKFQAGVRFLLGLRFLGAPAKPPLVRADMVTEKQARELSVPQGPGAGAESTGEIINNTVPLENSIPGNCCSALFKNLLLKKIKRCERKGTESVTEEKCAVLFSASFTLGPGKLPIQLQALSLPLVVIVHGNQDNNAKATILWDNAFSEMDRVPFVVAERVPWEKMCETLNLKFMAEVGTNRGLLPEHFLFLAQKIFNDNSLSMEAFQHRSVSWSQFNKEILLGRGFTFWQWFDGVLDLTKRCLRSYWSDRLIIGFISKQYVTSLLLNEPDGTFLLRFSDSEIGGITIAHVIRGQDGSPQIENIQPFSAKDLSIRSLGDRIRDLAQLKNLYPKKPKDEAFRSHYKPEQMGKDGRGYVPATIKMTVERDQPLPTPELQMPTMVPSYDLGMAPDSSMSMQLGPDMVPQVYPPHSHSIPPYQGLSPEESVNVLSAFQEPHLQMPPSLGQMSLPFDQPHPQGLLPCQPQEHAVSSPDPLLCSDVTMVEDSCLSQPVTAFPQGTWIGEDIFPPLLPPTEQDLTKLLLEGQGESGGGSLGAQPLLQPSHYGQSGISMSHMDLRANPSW
Kind of data set: Inhibition of IL-4 (and IL-13) stimulated phosphorylation of STAT6 in Beas-2B cells, western blot. To be noted: dose response. Format: cell-based. The arrangement: endogenous in cells; host or cells: Beas-2B immortalized human airway cells. On the procedure: Compound PM-241H inhibited the phosphorylation of Tyr641 of STAT6 in Beas-2B cells stimulated with IL-4 and IL-13.
as §5, §4
In general terms: Immunoblotting shows a protein as a band on a membrane.

Where [5] appears, read: splenocytes restimulated with ovalbumin.
Setting [6] is: ELISpot on whole lung homogenates.
Setting [7] is: intranasal 50 micrograms per dose during established disease.
Setting [8] is: A. niger conidia, DLPC/PM-43I after two weeks.

Entries after “also recorded” stand apart in the source; their conditions may differ.

For the molecule `CC(C)(C)C(=O)OCOP(=O)(OCOC(=O)C(C)(C)C)C(F)(F)c1ccc(/C=C/C(=O)NC(C(=O)N2CCCC2C(=O)N(c2ccccc2)c2ccc(-c3ccccc3)cc2)C(C)(C)C)cc1` (stereo not shown) [PM-242H], the “effect on Th cells” value in the data set on Th1, Th2, Th17 cells (FIGS. 11A-H legend) is listed as “inhibits Th cells”. Further, in the data set on Th1, Th2, Th17 cells (setting [5]), the “Th1 (IFN-γ)-secreting cells” value is given as “unaffected”, the “development of Th2 (IL-4-producing) T cells” value is “failed to develop” and the “development of Th17 (IL-17A-producing) T cells” value was “failed to develop”. Further, in the data set on allergic lung disease (setting [6]), the “IL-17A-secreting cells in lungs” value is reported as “significantly suppressed”; the “ratio between IL-4 and IFN-γ-secreting cells in lungs” value was “significantly suppressed”. For the same molecule, the “development of allergic lung disease” value in the data set with allergic lung disease (FIG. 12 legend) is “blocks the development of allergic lung disease”. Moreover, the airway hyperresponsiveness result with allergic airway disease (C57BL/6 mice, intranasal 50 micrograms per dose during established disease) is reported as “abrogation of airway hyperresponsiveness; also recorded: promotes recovery from airway hyperresponsiveness”. Besides, in the data set on allergic airway disease (FIGS. 13A-F legend), the mucus production result is recorded as “inhibition of mucus production”. In the data set with allergic airway disease (setting [7]), the “goblet cell metaplasia (periodic acid-Schiff staining)” value is on record as “reduction in goblet cell metaplasia”; the “lung and airway inflammation” value is “did not, however, attenuate”; the “number of airway eosinophils” value was “increased”; the “number of lung IL-17A-secreting cells” value is “increased”. Besides, the “STAT6 phosphorylation both in vitro and in vivo” value with STAT6 [1] was “inhibit”.
Turning to `CC(=CC(=O)NC1CCCCN(CC(=O)N(C)c2ccccc2)C1=O)c1ccc(C(F)(F)P(=O)(OCOC(=O)C(C)(C)C)OCOC(=O)C(C)(C)C)cc1` (stereo not shown) [PM-43I], the “cross reactivity with Stat5” value with Stat5 is on record as “significant cross reactivity”. Further, the “established allergic airway disease” value with allergic airway disease (A. niger conidia every other day, DLPC/PM-43I after two weeks) is “reverses established allergic airway disease”. Besides, in the data set with allergic airway disease (setting [8]), the immune cell recruitment result was “does not significantly affect” and the “lung immune response to A. niger infection” value is reported as “does in inhibit”. Also, in the data set with allergic airway disease (A. niger conidia, DLPC/PM-43I after two weeks, weeks 2, 3, 4), the “airway hyperresponsiveness induced by acetylcholine” value is given as “revered”. Also, the maximally effective dose in data set [2] was found to be 0.5 micrograms. For the same molecule, the weight gain entry in data set [3] is on record as “reduction in weight gain”. Moreover, the IC50 against STAT6 [4] is 1 to 2.5 µM.

The IC50 is the concentration that inhibits the measured activity by half. Low readings indicate inhibition by little substance, high ones a need for much substance.
